Measured values published in patent publication US20190083420A1, “METHODS OF USING (2R, 6R)-HYDROXYN[…] (2S, 6S)-HYDROXYN[…] THE TREATMENT OF DEPRESSION, ANXIETY, ANHEDONIA, FATIGUE, SUICIDAL IDEATION, AND POST TRAUMATIC STRESS DISORDERS” (The Uinited States of America, as represented by the …, priority 2016, published 2019).

What was measured:
[1] = test system: Male C57BL/6J mice; assay: Chronic social defeat stress and social interaction/avoidance test; format: in vivo; conditions: for locomotor activity and total compartmental crosses in the social interaction test: following chronic social defeat stress; for reversal of social interaction deficits / social avoidance induced by chronic social defeat stress: single i.p. injection, re-test 24 hours following treatment
Description: Male C57BL/6J mice underwent a 10-day chronic social defeat stress paradigm. Briefly, experimental mice were introduced to the home cage (43 cm length×11 cm width×20 cm height) of a resident aggressive retired CD-1 breeder, prescreened for aggressive behaviors, for 10 min. Following this physical attack phase, mice were transferred and housed in the opposite side of the resident's cage divided by a Plexiglas perforated divider, in order to maintain continuous sensory contact. This process was repeated for 10 days. Experimental mice were introduced to a novel aggressive CD-1 mouse each day. On day 11, test mice were screened for susceptibility in a social interaction/avoidance choice test. The social interaction apparatus consisted of a rectangular three-chambered box (mouse conditioned-place preference chamber; Stoelting Co., Wood Dale, Ill., USA), see FIG. 7b) comprised of two equal sized end-chambers and a smaller central chamber. The social interaction/avoidance choice test consisted of two 5-min phases. During the habituation phase, mice explored the empty apparatus. During the test phase, two small wire cages (Galaxy Cup, Spectrum Diversified Designs, Inc., Streetsboro, Ohio, USA), one containing a “stranger” CD-1 mouse and the other one empty, were placed in the far corners of each chamber. The time spent interacting (nose within close proximity of the cage) with the “stranger” mouse versus the empty cage was analysed using TopScan video tracking software (CleverSys, Reston, Va.). Locomotor activity (total distance moved over 5 min) and number of total crosses into and out of the central chamber were also measured. The social interaction ratio was calculated by dividing the time spent interacting with the “stranger” by the time spent with the empty cage. Mice having a social interaction ratio higher than 1.0 were considered resilient and mice with a social interaction ratio lower than 1.0 were considered susceptible. On day 13 resilient and susceptible mice received an i.p. injection of either saline, (R,S)-KET (20 mg/kg; chosen based upon dose previously effective in C57BL/6J mice^31), MK-801 (0.1 mg/kg) or (2R,6R)-HNK (20 mg/kg). Mice were re-tested for social interaction/avoidance on […] (24 hours following treatment).

[2] = test system: eEF2; assay: Western blot of synaptoneurosomes, eEF2 phosphorylation; format: in vivo, mice; conditions: for phosphorylation of eEF2: hippocampus, 1 hour and 24 hours post-injection, 10 mg/kg; for eEF2 / phosphorylated eEF2: prefrontal cortex
Description: To purify synaptoneurosomes, mouse prefrontal cortex or hippocampus were dissected and homogenized in Syn-PER Reagent (ThermoFisher Scientific, Waltham, Mass., USA; Cat #87793) with 1× protease and phosphatase inhibitor cocktail (ThermoFisher Scientific, Waltham, Mass., USA; Cat #78440). The homogenate was centrifuged for 10 min at 1,200×g at 4° C. The supernatant was centrifuged at 15,000×g for 20 min. After centrifugation, the supernatant the pellet (synaptosomal fraction) was re-suspended and sonicated in N-PER Neuronal Protein Extraction Reagent (ThermoFisher Scientific, Waltham, Mass., USA; Cat #87792). For total homogenous tissue lysates, mouse prefrontal cortex or hippocampus were homogenized and sonicated in N-PER Neuronal Protein Extraction Reagent with 1× protease & phosphatase inhibitor cocktail) Protein concentration was determined via the BCA protein assay kit (ThermoFisher Scientific, Waltham, Mass., USA; Cat #23227).
For western blotting, equal amount of proteins (10-40 μg as optimal for each antibody) for each sample were loaded into NuPage 4-12% Bis-Tris gel for electrophoresis. Nitrocellulose membranes with transferred proteins were blocked with 5% milk in TBST (TBS+0.1% Tween-20) for 1 hour and kept with primary antibodies overnight at 4° C. The following primary antibodies were used: phospho-eEF2 (Cell Signaling Technology, Danvers, Mass., USA; Cat #2331), total eEF2 (Cell Signaling Technology, Danvers, Mass., USA; Cat #2332), phospho-mTOR (Cell Signaling Technology, Danvers, Mass., USA; Cat #2971), total mTOR (Cell Signaling Technology, Danvers, Mass., USA; Cat #2983), GluR1 (Cell Signaling Technology, Danvers, Mass., USA; […]), GluR2 (Cell Signaling Technology, Danvers, Mass., USA; Cat #13607), BDNF (Santa Cruz Biotechnology, Dallas, Tex., USA; Cat # sc-546), and GAPDH (Abcam, Cambridge, Mass., USA; Cat # ab8245). The next day, blots were washed three times in PBST and incubated with horseradish peroxidase conjugated anti-mouse or anti-rabbit secondary antibody (1:5000 to 1:10000) for 1 hour. After final three washes with TBST, bands were detected using enhanced chemiluminescence (ECL) with the Syngene Imaging System (G:Box ChemiXX9). After imaging, the blots then were incubated in the stripping buffer (ThermoFisher Scientific, Waltham, Mass., USA; Cat #46430) for 10-15 min at room temperature followed by three time washes with TBST. The stripped blots were washed in blocking solution for 1 hour and incubated with the primary antibody directed against total levels of the respective protein or GAPDH for loading control. Densitometric analysis of phospho- and total immunoreactive bands for each protein was conducted using Syngene's GenTools software Immunoreactivity was normalized to the saline treated control group for each protein.

[3] = Tissue distribution of ketamine and metabolites (plasma and brain levels); conditions: brain
Description: Mice were euthanized by a 30-sec exposure to 3% isoflurane and decapitated at 10, 30, 60, 240 or 480 minutes following drug administration. Trunk blood was collected in EDTA-containing tubes and centrifuged at 8000 rpm for 6 min (4° C.). Plasma was collected and stored at −80° C. until analysis. Whole brains were simultaneously collected, rinsed with phosphate-buffered saline, immediately frozen in dry ice and stored at −80° C. until analysis.
The concentrations of ketamine and its metabolites in plasma and brain tissue were determined by achiral liquid chromatography-tandem mass spectrometry. For plasma samples, the calibration standards for (R,S)-ketamine, (R,S)-norketamine, (2R,6R;2S,6S)-HNK and (R,S)-DHNK ranged from 10,000 ng/ml to 19 ng/ml. The quantification of (R,S)-ketamine, (R,S)-norketamine, (R,S)-DHNK, and the HNK stereoisomers was accomplished by calculating area ratios using D4-ketamine (10 μl of 10 μg/ml solution) as the internal standard. Whole brains were suspended in 990 μl of water:methanol (3:2, v/v), D4-ketamine (10 μl of 10 μg/ml) added and the resulting mixture homogenized on ice with a polytron homogenizer and centrifuged at 21,000×g for 30 min. The supernatant was collected and processed using 1 ml Oasis HLB solid phase extraction cartridges (Waters Corp., Waltham, Mass.). The cartridges were preconditioned with 1 ml of methanol, followed by 1 ml of water and then 1 ml ammonium acetate [10 mM, pH 9.5]. The supernatants were added to the cartridges, followed by 1 ml of water and the compounds were eluted with 1 ml of methanol. The eluent was transferred to an autosampler vial for analysis. QC standards for the analysis of (R,S)-ketamine, (R,S)-norketamine, (R,S)-DHNK and (2R,6R;2S,6S)-HNK ranged from 10,000 ng/ml to 19 ng/ml, and quantification was accomplished using D4-(R,S)-ketamine as the internal standard. QC standards were prepared daily by adding 10 μl of the appropriate standard solution and 10 μl of internal standard solution (100 ng/ml) to methanol.

| Compound | locomotor activity and total compartmental crosses in the social interaction test [1] | reversal of social interaction deficits / social avoidance induced by chronic social defeat stress [1] | phosphorylation of eEF2 [2] | phosphorylation of eEF2 ([2]; listed as (R,S)-ketamine) | eEF2 / phosphorylated eEF2 ([2]; listed as (R,S)-KET) | brain levels following ketamine administration, female mice compared to males [3] | phosphorylation of eEF2 ([2]; listed as (2R,6R)-hydroxynorketamine) | eEF2 / phosphorylated eEF2 [2] | brain hydroxynorketamine levels after administration of (2S,6S)-HNK versus (2R,6R)-HNK [3] |
| --- | --- | --- | --- | --- | --- | --- | --- | --- | --- |
| CNC1(c2ccccc2Cl)CCCCC1=O (racemic) [ketamine, (R,S)-ketamine, reference compound] | without affecting | reversed social defeat stress-induced social avoidance behaviors | induced a decrease in eEF2 phosphorylation | decrease phosphorylation of eEF2 | did not alter | equivalent levels | – | – | – |
| N[C@@]1(c2ccccc2Cl)CCC[C@@H](O)C1=O [(2R,6R)-HNK, (2R,6R)-2-amino-2-(2-chlorophenyl)-6-hydroxycyclohexanone] | not associated with changes | reversed social interaction deficits | – | – | – | – | decrease phosphorylation of eEF2 | did not alter | do not result from higher brain levels |
